Results on one compound are retold here after US20110053160A1, “HCV NS3/4A REPLICON SHUTTLE VECTORS” (priority 2009, published 2011).

Broadly, the IC50 is the concentration needed to halve the response being measured.

Test [1] can be described thus: Transient replicon assay, IC50 determination (firefly luciferase reporter), shuttle vector replicons with patient-derived NS3/4A. The class given is cell-based, HCV. The settings on record: Hepatitis C virus, Huh-7, 72 h, luciferase read 72 hours after addition of inhibitor, read-out: IC50 VX-950. The method, then:
DNA sequences encoding the NS3/4A protein were generated from plasma obtained from patients infected with HCV using reverse transcription of RNA followed by PCRamplification of the reverse-transcribed product. Reverse transcription of RNA was performed using Taqman Reverse Transcription Reagents (Applied Biosystems, Foster City, Calif., USA) using the primer, 5′-ACCAGGTCCTCSGTGGAGG-3′ (SEQ ID NO:9) and according to the manufacturers' protocol. The synthesized cDNA was then PCR-amplified with the GC RICH PCR system (Roche Applied Science) to ensure high fidelity and robust yields. Annealing temperatures in the range of 50-52° C. were used depending on patient sample and primer combinations. Two PCR reactions with two independent primer sets used for the first round PCR were as follows:
Five micrograms of DNA was linearized by Sca I restriction enzyme (Roche Applied Science). After overnight digestion at 37° C., the DNA was purified using Qiagen PCR purification kit. Eight microliters of linearized DNA was used for the in vitro transcription using T7 RiboMAX Express Large Scale RNA Production System kit following manufacturer's protocol (Promega, Madison, Wis., USA). After 2 hours of incubation at 37° C., DNase treatment was performed for 20 minutes at 37° C. to remove the DNA template. In vitro transcribed RNA was then purified using RNeasy mini kit following manufacturer's protocol (Qiagen).
Cured hepatoma cell line Huh7 was obtained from R. Bartenschlager. Cells were cultured at 37° C. in a humidified atmosphere with 5% CO2 in Dulbecco's Modified Eagle Medium (DMEM) supplemented with Glutamax and […] sodium pyruvate (Cat# 10569-010). The medium was further supplemented with 10% (v/v) FBS (Cat# 16000-036) and 1% (v/v) penicillin/streptomycin (Cat# 15140-122). All reagents were from Invitrogen.
Four million cured Huh7 cells were transfected with 10 μg of in vitro transcribed RNA using electroporation. Cells were then resuspended in 12 ml of DMEM containing 5% FBS and plated in 96-well plate at 28,800 cells/well (in 90 μl final volume) Inhibitors were added 24 hours post-transfection in 3 fold dilutions at a final DMSO concentration of 1% and firefly luciferase reporter signal was read 72 hours after addition of inhibitors using the Luciferase Assay system (Promega, cat #E1501). The IC50 values were assessed as the inhibitor concentration at which a 50% reduction in the level of firefly luciferase reporter was observed as compared to the level of firefly luciferase signal without the addition of compounds. […]
In general terms: A replicon is a self-replicating genome or part of one, used to study replication in cells.

Test [2] relates to HCV GT-1b Con1 replicon pPI-luc/ET/SC in cured Huh7 cells. In words: Transient replicon assay, IC50 determination (firefly luciferase reporter), parent replicon. It counts as cell-based. The settings on record: Hepatitis C virus, GT1B, Huh-7, luciferase read 72 hours after addition of inhibitor, read-out: IC50 VX-950.

Where two headings read alike, the source gives them in different places.

`CCC[C@H](NC(=O)[C@@H]1[C@H]2CCC[C@H]2CN1C(=O)[C@@H](NC(=O)[C@@H](NC(=O)c1cnccn1)C1CCCCC1)C(C)(C)C)C(=O)C(=O)NC1CC1` [VX-950]: the IC50 was 268 nM in test [1] (patient isolate 34); 205 nM in test [1] (patient isolate 98); 97 nM in test [1] (patient isolate 5903); 48 nM in test [1] (patient isolate 34026); 92 nM in test [1] (patient isolate 52620); 381 nM in test [1] (patient isolate 61793). Also, the IC50 in test [1] (patient isolate 66200) stood at 332 nM; in test [1] (patient isolate 73837-2), 228 nM; in test [1] (patient isolate 135635) it was 394 nM; in test [1] (patient isolate 135640) it was 385 nM; in test [1] (patient isolate 135641) it was 175 nM; in test [1] (patient isolate 135649), 108 nM. The IC50 in test [1] (patient isolate RO256) was found to be 93 nM; in test [2], 253 nM.
